Here are results for three compounds from publication PMC7949049 (The Journal of Biological Chemistry, 2020).

The target of one data set is T1, RhoA·GMPPNP (Homo sapiens, UniProt P61586, F25N/Q63L).
T1 construct: RhoA (pGEX-2T, 1–186, F25N/Q63L); GST (cleaved yes); made in house
Nature of the data set: Direct-binding fluorescence polarization, RhoA. The conditions noted are these: 20 nM FAM-labelled non-solubilized peptide; n ≥ 2; ± standard error from curve fitting; read-out: Kd RhoA, FP (Table S1). The protocol:
(§1) FP experiments were performed on a BMG Labtech Pherastar fluorimeter at 298 K with excitation at 485 nm and emission at 520 nm as described previously ([34]), using 20 nM FAM-labeled peptide. Plates were read after 30 min incubation at room temperature. Data were fitted to a single-site binding model using nonlinear regression analysis in GraphPad prism 8.4 to obtain Kd values and their standard errors.
A general note: Fluorescence polarisation rises when a labelled molecule tumbles more slowly, as on binding a larger partner.

A further data set has as its target T2, Cdc42 (Homo sapiens, UniProt P60953, Q61L).
T2 construct: Cdc42 (pGEX-2T, 1–184, Q61L); GST (cleaved yes); made in house
Nature of the data set: Direct-binding fluorescence polarization, Cdc42. To be noted: 20 nM FAM-labelled non-solubilized peptide; n ≥ 2; ± standard error from curve fitting; read-out: Kd Cdc42, FP (Table S1). The protocol: as §1

Data set [1] is described as follows: Solubility in aqueous solution (observation). It counts as physicochemical. The conditions noted are these: qualitative.
Another data set concerns cells. To be noted: confocal microscopy of FAM-labeled peptide; cited from earlier work. An excerpt: It has been shown previously that stapled peptides need to form an amphipathic helix in order to enter cells ([52]), and the amphipathicity of our peptide was disrupted by the inclusion of the so ...
In another data set the target is T3, RalA·GTP (Homo sapiens, UniProt P11233, Q72L).
T3 construct: RalA (pMAT10, residues 1–184, Q72L); His6-MBP (cleaved yes); made in house; host or cells: E. coli (inferred from the pMAT10/pGEX vectors)
T3 sequence (P11233 1-184 Q72L): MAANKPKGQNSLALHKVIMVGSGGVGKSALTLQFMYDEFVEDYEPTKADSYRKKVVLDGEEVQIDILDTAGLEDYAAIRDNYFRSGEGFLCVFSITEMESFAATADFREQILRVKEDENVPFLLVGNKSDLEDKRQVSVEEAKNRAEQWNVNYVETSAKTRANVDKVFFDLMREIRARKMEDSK
Nature of the data set: Competition SPA, RalA against immobilized His-tagged wild-type RLIP76 RBD. It counts as binding.

In data set [2] the test system is V5-RalB Q72L / flag-RLIP76 complex. Nature of the data set: Coimmunoprecipitation of RalB/RLIP76 in HEK293T cell lysate. It counts as biochemical. To be noted: V5-RalB Q72L and flag-RLIP76, peptide 1 h at 4 °C, anti-V5 IP, western blot. The protocol:
(§2) 3 × 10^6 HEK293T cells were seeded in 10 cm dishes 48 h before the end point, in DMEM supplemented with 10% FBS. […] Dishes were lysed in 1 ml lysis buffer (50 mM Tris-HCl pH 7.8, 150 mM NaCl, 1% Triton, 1 mM EDTA, 1 mM sodium orthovanadate, 1 mM β-glycerophosphate, and protease inhibitor cocktail (Sigma-Aldrich). Lysates (1 ml) were centrifuged at 17,000g for 20 min and added to Protein G Dynabeads (30 μl, Invitrogen) preincubated with anti-V5 antibody (1 μg, R960-25, Invitrogen). Peptides, at the concentrations indicated in the results, were added and incubated with rotation for 1 h at 4 °C. Precipitated complexes were washed with lysis buffer (3 × 500 μl). Samples were resolved by SDS-PAGE and transferred to PVDF membranes (Immobilon-P). Membranes were probed by immunoblotting with the following primary antibodies: anti-V5-HRP (R961-25, Invitrogen), anti-flag-HRP (A8592, Sigma-Aldrich), and anti-Sec5 (EPR9420, Abcam).
(In western blotting, separated proteins are transferred to a membrane and probed.)

Data set [3] has as its system V5-RalB Q72L / endogenous Sec5 complex. Nature of the data set: Coimmunoprecipitation of RalB/Sec5 in HEK293T cell lysate. It counts as biochemical. The conditions noted are these: peptide 1 h at 4 °C, anti-V5 IP, western blot. The protocol:
as §2

Data set [4] is described as follows: Circular dichroism, helicity. It counts as physicochemical. The conditions noted are these: CD 185-260 nm, 0.2 mg/ml peptide in water, 298 K; CDSSTR method, reference set 3, Dichroweb. (In general: Circular dichroism is the unequal absorption of left and right circularly polarised light.)
Method: CD spectra were recorded at 1 nm intervals between 260 and 185 nm using an Aviv Model 410 CD spectrometer with a 1 mm path length quartz cuvette at 298 K. Three scans were recorded for each peptide or protein, the data were averaged, and the buffer background was subtracted. RLIP76 RBDs were measured at 0.2 mg/ml in 10 mM phosphate buffer, pH 7.3, and 150 mM NaF, while peptides were measured at 0.2 mg/ml in water. The helical content of each peptide and RBD was determined using the CDSSTR method with reference Set 3 and DichroWeb ([59], [60], [61]).

The structures appear in SMILES notation. Entries after “also recorded” stand apart in the source; their conditions may differ. Positions of bridges follow the written chain, without caps; N, C: chain ends. Non-standard residues stand in square brackets, D forms with d. Residues, ends and D or L forms follow the SMILES beside them. *: point of attachment. 5FAM = O=C1OC2(c3ccc(O)cc3Oc3cc(O)ccc32)c2ccc(C(=O)*)cc21; S5 = C=CCCC[C@](C)(N)C(=O)O

T2 sequence (P60953 1-184 Q61L, species assumed): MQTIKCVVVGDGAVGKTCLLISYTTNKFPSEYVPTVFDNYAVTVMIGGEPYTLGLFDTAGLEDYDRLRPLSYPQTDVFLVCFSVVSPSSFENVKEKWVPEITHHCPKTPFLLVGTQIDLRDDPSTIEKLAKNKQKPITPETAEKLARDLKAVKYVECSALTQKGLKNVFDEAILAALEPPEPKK
T1 sequence (P61586 1-186 F25N/Q63L): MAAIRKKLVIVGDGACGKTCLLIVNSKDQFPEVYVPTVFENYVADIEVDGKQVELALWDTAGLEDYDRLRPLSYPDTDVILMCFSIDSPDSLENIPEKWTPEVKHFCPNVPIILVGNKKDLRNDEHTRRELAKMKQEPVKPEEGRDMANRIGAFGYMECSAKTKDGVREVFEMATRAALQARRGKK

For `CC[C@H](C)[C@H](NC(=O)[C@H](CCCNC(=N)N)NC(=O)[C@H](CCC(N)=O)NC(=O)[C@@H](NC(=O)[C@H](CCC(=O)O)NC(=O)[C@H](Cc1c[nH]c2ccccc12)NC(=O)[C@H](CC(C)C)NC(=O)[C@]1(C)CCCC=CCCC[C@](C)(NC(=O)[C@H](CC(C)C)NC(=O)c2ccc3c(c2)C(=O)OC32c3ccc(O)cc3Oc3cc(O)ccc32)C(=O)N[C@@H](CCCCN)C(=O)N[C@@H](CCC(=O)O)C(=O)N[C@@H](CCC(=O)O)C(=O)N1)C(C)C)C(=O)N[C@@H](CC(C)C)C(=O)N[C@H](C(=O)N[C@@H](C)C(=O)N[C@@H](CC(C)C)C(=O)N[C@@H](CCCCN)C(=O)N[C@@H](CCCNC(=N)N)C(=O)N[C@@H](CCCCN)C(=O)N[C@@H](CC(C)C)C(=O)N[C@@H](CCCNC(=N)N)C(=O)N[C@@H](CCC(=O)O)C(=O)N[C@@H](C)C(N)=O)[C@@H](C)O` [SP1] (5FAM-L[S5]KEE[S5]LWEVQRILTALKRKLREA-NH2; staple 2-6), the Kd (in general, the equilibrium constant for the complex coming apart) on RhoA·GMPPNP stood at 0.0338 ± 0.0054 µM; at Cdc42 it was 13 ± 7.4 µM. Also, the solubility result in data set [1] was “poor solubility; also recorded: poorly soluble”. The “cell entry (previous work)” value in the data set on cells was “able to enter cells”.
As for `CC[C@H](C)[C@H](NC(=O)[C@H](CCCNC(=N)N)NC(=O)[C@H](CCC(N)=O)NC(=O)[C@H](CCC(=O)O)NC(=O)[C@H](CCC(=O)O)NC(=O)[C@H](C)NC(=O)[C@H](CC(C)C)NC(=O)[C@]1(C)CCCC=CCCC[C@](C)(NC(=O)[C@@H](N)CC(C)C)C(=O)N[C@@H](CCCCN)C(=O)N[C@@H](CCC(=O)O)C(=O)N[C@@H](CCC(=O)O)C(=O)N1)C(=O)N[C@@H](CCCCN)C(=O)N[C@H](C(=O)N[C@@H](C)C(=O)N[C@@H](CCC(=O)O)C(=O)N[C@@H](CCCCN)C(=O)N[C@@H](CCCNC(=N)N)C(=O)N[C@@H](CCCCN)C(=O)N[C@@H](CCCCN)C(=O)N[C@@H](CCCNC(=N)N)C(=O)N[C@@H](CCC(=O)O)C(=O)N[C@@H](C)C(N)=O)[C@@H](C)O` [W430A-sol] (H-L[S5]KEE[S5]LAEEQRIKTAEKRKKREA-NH2; staple 2-6; N-terminus assumed), the Kd at RalA·GTP was > 100 µM. The “Kd RalA·GTP, Competition SPA (RLIP76)” value on RalA·GTP (peptides titrated into [3H]-GTP RalA (100 nM) and His-tagged wild-type RLIP76 RBD on SPA beads, apparent Kd (Ki), ± standard error from curve fitting) is reported as “very weak binding”. Further, in data set [2], the “disruption of RalB–RLIP76 complex in cell lysate” value is on record as “did not inhibit complex formation”. Moreover, in data set [3], the “disruption of RalB–Sec5 complex in cell lysate” value was “did not inhibit complex formation”.
`CC[C@H](C)[C@H](NC(=O)[C@H](CCCNC(=N)N)NC(=O)[C@H](CCC(N)=O)NC(=O)[C@H](CCC(=O)O)NC(=O)[C@H](CCC(=O)O)NC(=O)[C@H](Cc1c[nH]c2ccccc12)NC(=O)[C@H](CC(C)C)NC(=O)[C@]1(C)CCCC=CCCC[C@](C)(NC(=O)[C@@H](N)CC(C)C)C(=O)N[C@@H](CCCCN)C(=O)N[C@@H](CCC(=O)O)C(=O)N[C@@H](CCC(=O)O)C(=O)N1)C(=O)N[C@@H](CCCCN)C(=O)N[C@H](C(=O)N[C@@H](C)C(=O)N[C@@H](CCC(=O)O)C(=O)N[C@@H](CCCCN)C(=O)N[C@@H](CCCNC(=N)N)C(=O)N[C@@H](CCCCN)C(=O)N[C@@H](CCCCN)C(=O)N[C@@H](CCCNC(=N)N)C(=O)N[C@@H](CCC(=O)O)C(=O)N[C@@H](C)C(N)=O)[C@@H](C)O` [wt-sol] (H-L[S5]KEE[S5]LWEEQRIKTAEKRKKREA-NH2; staple 2-6; N-terminus assumed): the “Helicity (%) of peptides” value in data set [4] was found to be 46%.
